Data set [1] is described as follows: Inhibition of Influenza A virus M2 ion channel by two-electrode voltage clamp assay.
The nature of data set [2]: Cytotoxicity against MDCK cells assessed as minimum cytotoxic concentration after 24 hrs by MTS assay. The data set is classed as cell-based, Canis lupus familiaris. Conditions: dog.
Data set [3] is described as follows: Cytotoxicity against MDCK cells assessed as minimum cytotoxic concentration after 72 hrs by MTS assay. The data set is classed as cell-based, Canis lupus familiaris. Conditions: dog.
A further data set deals with MDCK. Put plainly: Cytotoxicity against MDCK cells after 72 hrs by MTS assay. The data set is classed as cell-based, Canis lupus familiaris. Conditions: dog.
In the next data set the test system is Coxsackievirus B4. Put plainly: Antiviral activity against Coxsackievirus B4. The data set is classed as functional, organism-based.
For data set [4], the system named is Mammalian orthoreovirus 1. As to the kind of experiment: Antiviral activity against Reovirus-1. It is filed as functional, organism-based.
The subject of a further data set is Punta Toro virus. As to the kind of experiment: Antiviral activity against Punta Toro virus. It is filed as functional, organism-based.
Data set [5] has as its system Vesicular stomatitis virus. As to the kind of experiment: Antiviral activity against Vesicular stomatitis virus. The data set is classed as functional, organism-based.
The subject of another data set is Sindbis virus. As to the kind of experiment: Antiviral activity against Sindbis virus. It is filed as functional, organism-based.
The test system of data set [6] is Respiratory syncytial virus. As to the kind of experiment: Antiviral activity against Respiratory syncytial virus. The data set is classed as functional, organism-based.
The next data set concerns Human respirovirus 3. Put plainly: Antiviral activity against Parainfluenza-3 virus. It is filed as functional, organism-based.
In the next data set the test system is Vaccinia virus. As to the kind of experiment: Antiviral activity against Vaccinia virus. It is filed as functional, organism-based. The following applies: Orthopoxvirus vaccinia.
For another data set, the system named is Feline coronavirus. Put plainly: Antiviral activity against Feline coronavirus. The data set is classed as functional, organism-based.
The test system of another data set is Human alphaherpesvirus 2. Put plainly: Antiviral activity against Herpes simplex virus type 2. It is filed as functional, organism-based.
Another data set has as its system Human alphaherpesvirus 1. As to the kind of experiment: Antiviral activity against Herpes simplex virus type 1. The data set is classed as functional, organism-based.
Data set [7] concerns Influenza A virus (A/udorn/1972(H3N2)). The data set is classed as cell membranes. Conditions: 100 uM.

We go through six compounds from ChEMBL document CHEMBL3085678, “3-Azatetracyclo[5.2.1.1(5,8).0(1,5)]undecane derivatives: from wild-type inhibitors of the M2 ion channel of influenza A virus to derivatives with potent activity against the V27A mutant” (J Med Chem, 2013).

Active and inactive are the calls of the source. The calls are words filed in the database; no cut-off is given here.

Compound `c1csc(-c2cc(CNC34CC5CC(CC(C5)C3)C4)no2)c1` gave an IC50 in data set [1] of over 100 µM.

`NC1CCC2(CC1)C1CC3CC(C1)CC2C3` (centres undefined) returned an IC50 in data set [1] of 19 µM.

`NC1CC[Si]2(CCCCC2)CC1` came in with an IC50 in [1] of 14 µM.

As for `Oc1ccc(CNC23CC4CC(CC(C4)C2)C3)c(O)c1`, in data set [1], the midpoint of inhibition, the IC50, lay at 59 µM.

With `N=C(N)N1CC23CC4CC2(CC4C3)C1`, the MCC at 24 h in data set [2] is over 50 µM. Further, in data set [3], the MCC at 72 h worked out at 8.5 µM. Further, in the data set with MDCK, the CC50 is 10 µM. For the same compound, the result (with Coxsackievirus B4; in [4]; in the data set on Punta Toro virus; in data set [5]; in the data set with Sindbis virus; in data set [6]) was inactive. The outcome with Human respirovirus 3, in the data set on Vaccinia virus, in the data set on Feline coronavirus, in the data set on Human alphaherpesvirus 2 and with Human alphaherpesvirus 1 was inactive. Besides, the inhibition in [7] was found to be 95.7%.

In the case of `CC12CC34CN(C(=N)N)CC3(C1)CC2(C)C4`, the MCC at 24 h in [2] is over 50 µM. For the same compound, the MCC at 72 h in data set [3] was found to be 4 µM. This compound displayed a half-maximal cytotoxic concentration (CC50) with MDCK of 1.4 µM. For the same compound, the result (with Coxsackievirus B4; in data set [4]; in the data set with Punta Toro virus; in data set [5]; with Sindbis virus; in [6]) was inactive. The outcome in the data set with Human respirovirus 3, in the data set on Vaccinia virus, with Feline coronavirus, in the data set on Human alphaherpesvirus 2 and with Human alphaherpesvirus 1 was inactive. The compound also had an inhibition in data set [7] of 92.4%.
